Reference: ChEMBL document CHEMBL1201862, “PubChem BioAssay data set” (2004)
Activity calls are given as the source filed them.

Columns and labels:
[1] = DRD fibroblast viability loss – cell-based, non-viral oncogenic, luminescence, dose response (AID 1934); type: functional; conditions: Homo sapiens
[2] = alpha-synuclein stem-loop luciferase translation blockers – H4 neuroglioma cells, luminescence, confirmation (AID 1988); type: functional, cell-based
[3] = system: Streptococcus sp. 'group A'; test: Streptococcus pyogenes SK(-)GAS viability under kanamycin – luminescence, BacTiterGlo, confirmation, counter-screen for streptokinase expression inhibitor project, dose response (AID 1900); type: functional, organism-based
[4] = system: BJ; test: cells; type: functional, cell-based; conditions: Homo sapiens
[5] = cells; type: functional, cell-based
[6] = system: BJ; test: growth inhibition of engineered Ras-driven BJ cells – cell-based, alamar blue fluorescence, cherrypicked samples, dose response (AID 2631); type: functional; conditions: Homo sapiens;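 also: confirmatory dose-response assay in RAS-dependent BJ fibroblasts engineered with TERT, LT and ST, with cytotoxicity read by fluorescence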
[7] = decrease of insulin promoter-GFP reporter – imaging, high-content screening, mouse beta cells (AID 1628); type: functional; conditions: MIN6
[8] = target: Exodeoxyribonuclease V (Escherichia coli (strain K12), UniProt P04993+P07648+P08394); test: RecBCD inhibition via phage-restricted bacterial growth – absorbance, V66 E. coli, mutant T4 phage, counter-screen for AddAB inhibitor project, dose response (AID 492957); type: functional, cell-based, Escherichia coli str. K-12 substr. MG1655
[9] = luciferase reporter signal suppression in cells – H4 neuroglioma cells, luminescence, dose response (AID 1990); type: functional, cell-based
[10] = system: Vero; test: cells; type: functional, cell-based; conditions: Chlorocebus sabaeus
[11] = alpha-synuclein stem-loop translation blockers – luminescence, H4 neuroglioblastoma cells, dose confirmation, confirmation (AID 2454); type: functional, cell-based;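 also: H4 neuroglioblastoma cells carrying an alpha-synuclein 5'UTR luciferase reporter; potency for inhibition of the luciferase signal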
[12] = system: BJ; test: BJ-TERT fibroblast viability loss – cell-based, RAS-independent, luminescence, dose response (AID 1933); type: functional; conditions: Homo sapiens
[13] = target: T1, Heat shock factor protein 1 (Mus musculus, UniProt P38532); test: enhancement of HSF1-driven luciferase signal – cell-based, NIH3T3, luminescence, dose retest, confirmation (AID 435004); type: functional;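 also: stress induced by proteasome inhibitor MG132 added 30 min after compound; luciferase reporter driven by HSF1 response element in NIH3T3 cells; actives raise luminescence as potentiators of the MG132 stress response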
T1 sequence (P38532 whole entry): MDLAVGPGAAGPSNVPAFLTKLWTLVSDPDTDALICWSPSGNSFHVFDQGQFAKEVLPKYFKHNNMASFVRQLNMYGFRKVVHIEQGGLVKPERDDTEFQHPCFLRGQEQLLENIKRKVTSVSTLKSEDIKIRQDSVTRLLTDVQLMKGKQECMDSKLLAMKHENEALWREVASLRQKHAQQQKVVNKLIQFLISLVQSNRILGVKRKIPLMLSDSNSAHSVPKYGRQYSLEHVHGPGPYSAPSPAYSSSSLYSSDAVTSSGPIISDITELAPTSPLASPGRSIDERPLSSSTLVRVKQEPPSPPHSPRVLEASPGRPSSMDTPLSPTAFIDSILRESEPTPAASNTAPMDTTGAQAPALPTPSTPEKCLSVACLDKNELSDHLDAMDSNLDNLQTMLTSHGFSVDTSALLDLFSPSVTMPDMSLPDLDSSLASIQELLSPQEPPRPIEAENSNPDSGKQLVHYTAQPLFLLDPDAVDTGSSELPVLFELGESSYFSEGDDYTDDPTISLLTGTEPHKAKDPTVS

[14] = Luminescence Cell-Based Dose Response HTS to Identify Inhibitors of 5'UTR Stem-Loop Driven Prion Protein mRNA Translation in H4 Neuroglioblastoma Cells. [Related pubchem assays: 1827 (Project Summary), 1813 (Primary HTS)]; type: functional
[15] = HEK-293T viability loss after treatment – luminescence, T-cell screen hits, cytotoxicity control for TCR NF-kB inhibitor project, dose response (AID 489026); type: functional, cell-based;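 also: cells exposed to compound about 14 hours before the viability readout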
[16] = system: Vero; test: cells; type: functional; conditions: Chlorocebus sabaeus
[17] = system: Streptococcus; test: GAS UMAA2166 growth inhibition – luminescence, BacTiterGlo, counter-screen for streptokinase expression inhibitor project, dose response (AID 1915); type: functional, organism-based;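 also: potency for reduction of bacterial viability or growth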
[18] = system: BJ; test: BJ-TERT-LT-ST fibroblast viability loss – cell-based, RAS-independent, luminescence, dose response (AID 1935); type: functional; conditions: Homo sapiens;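 also: BJ fibroblasts immortalized with TERT plus LT and ST oncogenes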
[19] = MIN6 cell viability loss – mouse insulinoma, cytotoxicity control, dose response (AID 2122); type: functional;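 also: confirmatory high-throughput counterscreen run to flag cytotoxic compounds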
[20] = luciferase reporter signal reduction – luminescence, H4-C neuroglioblastoma cells, dose response (AID 2458); type: functional, cell-based;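 also: H4 neuroglioblastoma cells stably carrying a luciferase reporter gene fusion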
[21] = target: Heat shock protein HSP 90-alpha (Homo sapiens, UniProt P07900); type: functional, organism-based
[22] = Counterscreen for AddAB inhibitors: absorbance-based bacterial cell-based high throughput dose response assay for inhibitors of bacterial viability. [Related pubchem assays (depositor defined):AID435030, AID449728, AID449731, AID488942, AID488955, AID488956]; type: functional
[23] = target: T2, Short transient receptor potential channel 4 (Mus musculus, UniProt Q9QUQ5); test: calcium entry via TRPC4 opening agents – cell-based, HEK293 TRPC4/mu-opioid, Fluo-4 calcium, dose response (AID 434937); type: functional
T2 sequence (Q9QUQ5 whole entry): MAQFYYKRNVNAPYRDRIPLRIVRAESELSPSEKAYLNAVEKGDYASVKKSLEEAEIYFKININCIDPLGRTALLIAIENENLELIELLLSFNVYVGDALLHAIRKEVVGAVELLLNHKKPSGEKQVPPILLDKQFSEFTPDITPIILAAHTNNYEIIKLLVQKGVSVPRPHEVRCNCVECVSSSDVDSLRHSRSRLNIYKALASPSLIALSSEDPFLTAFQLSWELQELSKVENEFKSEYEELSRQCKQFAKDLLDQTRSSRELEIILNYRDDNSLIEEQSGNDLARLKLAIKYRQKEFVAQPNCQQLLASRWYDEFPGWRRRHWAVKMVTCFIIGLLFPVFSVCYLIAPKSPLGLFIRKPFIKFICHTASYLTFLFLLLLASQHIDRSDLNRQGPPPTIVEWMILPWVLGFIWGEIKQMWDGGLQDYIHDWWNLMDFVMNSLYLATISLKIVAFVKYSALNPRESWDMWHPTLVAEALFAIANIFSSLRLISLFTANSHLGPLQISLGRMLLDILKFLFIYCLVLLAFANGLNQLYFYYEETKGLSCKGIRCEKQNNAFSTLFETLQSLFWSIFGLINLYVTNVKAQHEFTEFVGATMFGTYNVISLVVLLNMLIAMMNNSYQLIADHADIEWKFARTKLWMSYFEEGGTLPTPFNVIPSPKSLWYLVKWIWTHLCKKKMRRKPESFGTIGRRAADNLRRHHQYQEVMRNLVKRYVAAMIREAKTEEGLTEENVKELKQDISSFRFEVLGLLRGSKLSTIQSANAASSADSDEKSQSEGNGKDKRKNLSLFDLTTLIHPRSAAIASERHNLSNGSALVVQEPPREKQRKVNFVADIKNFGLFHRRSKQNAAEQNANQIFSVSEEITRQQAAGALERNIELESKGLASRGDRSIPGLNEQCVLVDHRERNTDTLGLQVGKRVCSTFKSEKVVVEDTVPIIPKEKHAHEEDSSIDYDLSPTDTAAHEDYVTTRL

[24] = target: 5-hydroxytryptamine receptor 5A (Homo sapiens, UniProt P47898); test: Counterscreen for agonists of OPRM1-OPRD1 heterodimerization: luminescence-based cell-based high throughput dose response assay to identify agonists of 5-hydroxytryptamine (serotonin) 5A receptor (HTR5A). [Related pubchem assays (depositor defined):AID504326, AID504355, AID504692, AID504904, AID504905]; type: functional
[25] = target: Mu-type opioid receptor (Homo sapiens, UniProt P35372); test: (§1) Counterscreen for agonists of heterodimerization of the mu 1 (OPRM1) and delta 1 (OPRD1) opioid receptors: Luminescence-based cell-based high throughput dose response assay to identify agonists of OPRM1 homodimerization.; type: functional
[26] = target: Delta-type opioid receptor (Homo sapiens, UniProt P41143); test: as §1, with “of OPRD1” for “of OPRM1”, “homodimerization. [Related pubchem assays (depositor defined):AID504326, AID504355, AID504692, AID504904, AID504905]” for “homodimerization.”; type: functional
[27] = target: Voltage-gated inwardly rectifying potassium channel KCNH2 (Homo sapiens, UniProt Q12809); conditions: Potency;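 also: confirmatory quantitative high-throughput screen measuring inhibition of hERG channel activity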
[28] = target: T3, Dual specificity protein phosphatase 6 (Rattus norvegicus, UniProt Q64346)
T3 sequence (Q64346 whole entry): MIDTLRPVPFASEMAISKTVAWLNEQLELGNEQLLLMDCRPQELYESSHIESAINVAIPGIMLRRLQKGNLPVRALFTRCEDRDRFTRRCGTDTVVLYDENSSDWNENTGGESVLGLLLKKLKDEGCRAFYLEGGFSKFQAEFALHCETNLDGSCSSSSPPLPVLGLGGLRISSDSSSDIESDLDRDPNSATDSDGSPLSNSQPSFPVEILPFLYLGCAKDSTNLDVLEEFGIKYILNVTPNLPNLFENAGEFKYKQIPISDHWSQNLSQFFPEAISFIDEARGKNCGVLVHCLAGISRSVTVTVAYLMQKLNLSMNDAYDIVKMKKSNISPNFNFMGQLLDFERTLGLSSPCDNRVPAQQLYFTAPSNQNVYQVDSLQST

[29] = target: T4, Tyrosine-protein phosphatase non-receptor type 7 (Homo sapiens, UniProt P35236); type: functional
T4 sequence (P35236 whole entry): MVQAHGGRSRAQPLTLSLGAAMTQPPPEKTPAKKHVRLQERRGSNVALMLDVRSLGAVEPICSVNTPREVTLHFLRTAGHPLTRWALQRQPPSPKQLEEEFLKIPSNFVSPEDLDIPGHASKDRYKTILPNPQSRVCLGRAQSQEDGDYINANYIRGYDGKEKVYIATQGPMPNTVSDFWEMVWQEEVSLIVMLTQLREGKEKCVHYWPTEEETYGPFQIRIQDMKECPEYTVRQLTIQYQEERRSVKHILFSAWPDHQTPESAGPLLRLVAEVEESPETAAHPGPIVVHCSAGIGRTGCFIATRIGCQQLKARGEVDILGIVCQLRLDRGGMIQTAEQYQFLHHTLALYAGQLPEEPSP

[30] = target: T3, Dual specificity protein phosphatase 6; type: functional
[31] = target: Glyceraldehyde-3-phosphate dehydrogenase (Homo sapiens, UniProt P04406)

Sequence of Voltage-gated inwardly rectifying potassium channel KCNH2 (Q12809 whole entry): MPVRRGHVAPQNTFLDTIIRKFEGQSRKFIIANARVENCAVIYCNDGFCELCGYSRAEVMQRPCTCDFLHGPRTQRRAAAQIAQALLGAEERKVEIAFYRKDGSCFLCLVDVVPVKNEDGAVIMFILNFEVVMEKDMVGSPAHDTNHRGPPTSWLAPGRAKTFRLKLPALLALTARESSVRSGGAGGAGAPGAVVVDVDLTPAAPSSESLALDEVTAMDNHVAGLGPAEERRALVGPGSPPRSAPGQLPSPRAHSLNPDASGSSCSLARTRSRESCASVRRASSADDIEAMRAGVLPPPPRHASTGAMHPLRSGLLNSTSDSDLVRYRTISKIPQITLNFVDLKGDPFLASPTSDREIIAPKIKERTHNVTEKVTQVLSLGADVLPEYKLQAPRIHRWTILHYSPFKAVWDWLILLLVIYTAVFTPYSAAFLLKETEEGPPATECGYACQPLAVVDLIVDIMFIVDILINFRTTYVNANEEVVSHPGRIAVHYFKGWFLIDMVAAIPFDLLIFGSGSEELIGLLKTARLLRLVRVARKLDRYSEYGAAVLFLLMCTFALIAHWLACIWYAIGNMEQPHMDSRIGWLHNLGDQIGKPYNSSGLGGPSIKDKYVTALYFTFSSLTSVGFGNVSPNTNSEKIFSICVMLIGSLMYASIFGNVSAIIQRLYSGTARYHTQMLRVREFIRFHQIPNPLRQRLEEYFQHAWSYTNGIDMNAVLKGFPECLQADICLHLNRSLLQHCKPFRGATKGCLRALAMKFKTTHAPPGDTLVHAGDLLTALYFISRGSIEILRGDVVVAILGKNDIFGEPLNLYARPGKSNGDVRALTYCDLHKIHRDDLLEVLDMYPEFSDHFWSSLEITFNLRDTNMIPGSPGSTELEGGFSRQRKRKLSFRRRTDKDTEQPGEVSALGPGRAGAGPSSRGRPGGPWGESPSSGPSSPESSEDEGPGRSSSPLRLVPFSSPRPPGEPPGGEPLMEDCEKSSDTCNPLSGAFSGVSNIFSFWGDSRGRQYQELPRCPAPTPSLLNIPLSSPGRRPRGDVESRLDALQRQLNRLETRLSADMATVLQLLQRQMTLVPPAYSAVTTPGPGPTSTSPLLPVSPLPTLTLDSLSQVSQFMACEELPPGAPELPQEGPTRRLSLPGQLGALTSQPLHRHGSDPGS
Sequence of Delta-type opioid receptor (P41143 whole entry): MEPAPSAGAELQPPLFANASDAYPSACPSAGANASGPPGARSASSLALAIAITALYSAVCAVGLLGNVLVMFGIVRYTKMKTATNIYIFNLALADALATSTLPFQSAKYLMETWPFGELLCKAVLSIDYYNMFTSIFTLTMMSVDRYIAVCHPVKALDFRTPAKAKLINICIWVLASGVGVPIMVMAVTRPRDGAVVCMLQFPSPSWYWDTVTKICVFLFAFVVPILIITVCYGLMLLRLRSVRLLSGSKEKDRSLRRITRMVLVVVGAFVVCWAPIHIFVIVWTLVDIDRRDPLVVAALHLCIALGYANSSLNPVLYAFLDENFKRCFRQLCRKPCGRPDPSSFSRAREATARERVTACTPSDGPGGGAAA
Sequence of Exodeoxyribonuclease V (P04993 whole entry): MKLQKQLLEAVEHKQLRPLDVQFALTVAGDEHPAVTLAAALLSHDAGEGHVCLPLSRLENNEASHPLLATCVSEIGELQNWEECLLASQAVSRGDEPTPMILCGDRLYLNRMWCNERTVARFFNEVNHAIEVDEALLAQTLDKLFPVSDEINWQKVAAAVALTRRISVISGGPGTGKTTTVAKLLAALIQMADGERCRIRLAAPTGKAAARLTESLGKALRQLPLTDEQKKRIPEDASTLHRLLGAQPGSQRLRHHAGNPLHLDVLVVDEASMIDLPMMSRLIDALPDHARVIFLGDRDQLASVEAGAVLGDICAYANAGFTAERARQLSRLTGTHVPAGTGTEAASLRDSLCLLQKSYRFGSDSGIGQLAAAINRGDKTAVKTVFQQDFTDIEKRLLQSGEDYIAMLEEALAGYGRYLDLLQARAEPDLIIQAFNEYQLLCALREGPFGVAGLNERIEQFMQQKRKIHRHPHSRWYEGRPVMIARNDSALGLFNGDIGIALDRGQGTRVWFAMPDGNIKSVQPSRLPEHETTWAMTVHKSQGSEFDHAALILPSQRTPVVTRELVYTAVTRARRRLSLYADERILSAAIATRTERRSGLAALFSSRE
Sequence of Exodeoxyribonuclease V (P07648 whole entry): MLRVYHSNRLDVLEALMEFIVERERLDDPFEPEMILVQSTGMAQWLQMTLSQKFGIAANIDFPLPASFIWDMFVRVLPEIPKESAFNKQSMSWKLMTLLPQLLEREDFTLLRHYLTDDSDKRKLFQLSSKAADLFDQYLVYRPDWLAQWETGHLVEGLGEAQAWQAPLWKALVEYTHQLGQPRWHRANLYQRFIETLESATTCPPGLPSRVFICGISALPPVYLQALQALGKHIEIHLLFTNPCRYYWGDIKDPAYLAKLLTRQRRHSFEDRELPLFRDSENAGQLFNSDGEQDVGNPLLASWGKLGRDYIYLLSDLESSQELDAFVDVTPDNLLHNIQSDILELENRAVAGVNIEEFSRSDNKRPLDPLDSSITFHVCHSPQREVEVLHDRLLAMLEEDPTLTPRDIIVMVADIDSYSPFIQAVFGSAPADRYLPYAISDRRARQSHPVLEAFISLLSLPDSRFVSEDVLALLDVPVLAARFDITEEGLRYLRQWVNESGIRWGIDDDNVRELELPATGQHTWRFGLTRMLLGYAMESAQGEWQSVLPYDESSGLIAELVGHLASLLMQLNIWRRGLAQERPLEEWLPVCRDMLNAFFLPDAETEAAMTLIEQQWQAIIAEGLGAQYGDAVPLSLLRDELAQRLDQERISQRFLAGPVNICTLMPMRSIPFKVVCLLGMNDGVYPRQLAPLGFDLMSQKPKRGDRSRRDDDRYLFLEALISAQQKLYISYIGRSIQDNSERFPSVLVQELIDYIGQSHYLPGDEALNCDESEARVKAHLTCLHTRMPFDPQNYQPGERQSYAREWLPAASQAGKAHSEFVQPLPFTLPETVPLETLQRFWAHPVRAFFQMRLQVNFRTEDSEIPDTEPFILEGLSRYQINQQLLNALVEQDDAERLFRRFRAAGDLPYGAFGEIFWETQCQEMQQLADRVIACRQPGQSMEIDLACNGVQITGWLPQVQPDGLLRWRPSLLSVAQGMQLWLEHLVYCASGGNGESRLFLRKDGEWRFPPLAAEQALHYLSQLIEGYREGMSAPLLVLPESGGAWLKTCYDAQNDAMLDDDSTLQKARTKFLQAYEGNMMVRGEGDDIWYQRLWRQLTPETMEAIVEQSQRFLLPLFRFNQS
Sequence of Exodeoxyribonuclease V (P08394 whole entry): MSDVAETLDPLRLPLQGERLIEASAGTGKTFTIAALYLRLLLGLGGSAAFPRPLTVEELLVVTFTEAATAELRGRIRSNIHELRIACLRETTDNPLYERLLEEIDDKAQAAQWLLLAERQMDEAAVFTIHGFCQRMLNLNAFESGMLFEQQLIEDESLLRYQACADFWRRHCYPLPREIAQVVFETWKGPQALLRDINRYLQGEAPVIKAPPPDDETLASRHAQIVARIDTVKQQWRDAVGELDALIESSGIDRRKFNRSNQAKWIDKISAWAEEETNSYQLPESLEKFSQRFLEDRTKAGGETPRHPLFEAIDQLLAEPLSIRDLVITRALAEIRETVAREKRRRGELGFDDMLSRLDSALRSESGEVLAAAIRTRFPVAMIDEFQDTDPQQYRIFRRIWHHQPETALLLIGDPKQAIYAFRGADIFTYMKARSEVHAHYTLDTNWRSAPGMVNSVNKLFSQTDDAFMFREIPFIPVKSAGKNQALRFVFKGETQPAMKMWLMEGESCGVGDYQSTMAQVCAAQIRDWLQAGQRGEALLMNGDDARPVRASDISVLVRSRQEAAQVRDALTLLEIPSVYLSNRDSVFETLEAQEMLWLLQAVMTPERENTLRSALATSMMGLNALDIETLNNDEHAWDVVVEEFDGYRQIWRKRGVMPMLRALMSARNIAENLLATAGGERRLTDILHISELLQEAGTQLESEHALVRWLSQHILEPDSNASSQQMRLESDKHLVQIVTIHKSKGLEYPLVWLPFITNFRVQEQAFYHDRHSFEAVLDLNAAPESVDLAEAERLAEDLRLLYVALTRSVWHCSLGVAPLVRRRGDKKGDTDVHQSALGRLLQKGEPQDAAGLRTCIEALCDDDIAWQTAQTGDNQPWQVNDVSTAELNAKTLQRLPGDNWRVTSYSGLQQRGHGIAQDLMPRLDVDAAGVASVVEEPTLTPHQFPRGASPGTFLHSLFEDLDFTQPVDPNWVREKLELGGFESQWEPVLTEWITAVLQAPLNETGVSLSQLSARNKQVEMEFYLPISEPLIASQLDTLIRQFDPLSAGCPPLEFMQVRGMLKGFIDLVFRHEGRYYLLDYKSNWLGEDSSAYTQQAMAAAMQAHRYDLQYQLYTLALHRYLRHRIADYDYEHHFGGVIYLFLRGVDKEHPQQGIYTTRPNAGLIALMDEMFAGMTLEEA
Sequence of 5-hydroxytryptamine receptor 5A (P47898 whole entry): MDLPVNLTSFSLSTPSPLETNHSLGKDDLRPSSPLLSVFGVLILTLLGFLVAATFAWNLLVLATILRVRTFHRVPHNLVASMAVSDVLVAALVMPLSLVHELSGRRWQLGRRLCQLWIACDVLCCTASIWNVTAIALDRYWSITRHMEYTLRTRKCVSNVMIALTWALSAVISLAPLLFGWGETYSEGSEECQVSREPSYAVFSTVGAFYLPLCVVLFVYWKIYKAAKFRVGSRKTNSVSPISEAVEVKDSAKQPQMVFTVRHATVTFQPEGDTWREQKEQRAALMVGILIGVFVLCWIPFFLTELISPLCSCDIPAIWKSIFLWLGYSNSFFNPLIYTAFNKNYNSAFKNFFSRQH

Oc1ccccc1N=Nc1nc(-c2ccccc2)c(-c2ccccc2)[nH]1
EC50 [1]: 515 nM (active)
EC50 [2]: < 100 nM (active)
EC50 [3]: 278 nM (active)
EC50 [4]: 951 nM (active)
EC50 [5]: 355 nM (active)
EC50 [6]: 118 nM (active)
IC50 [7]: 533 nM (active)
IC50 [8]: > 119000 nM (inactive)
EC50 [9]: < 100 nM (active)
IC50 [10]: > 25000 nM (active)
EC50 [11]: 507 nM (active)
EC50 [12]: 643 nM (inconclusive)
EC50 [13]: 26000 nM (active)
EC50 [14]: 103 nM (active)
IC50 [15]: > 80000 nM (inactive)
CC50 [16]: 60 nM (active)
EC50 [17]: 1050 nM (active)
EC50 [18]: 1670 nM (active)
IC50 [19]: 820 nM (active)
EC50 [20]: 282 nM (active)
AC50 [21]: 2290 nM (active)
IC50 [22]: > 119000 nM (inactive)

COc1ccc(C(CNC(=O)CSc2ccccc2C)N(C)C)cc1 (stereo unspecified)
EC50 [23]: 237 nM (active)
EC50 [24]: > 92500 nM (inactive)
EC50 [25]: > 92500 nM (inactive)
EC50 [26]: > 92500 nM (inactive)

Cc1cccc(C)c1OCC(N)C(C)C (stereo unspecified)
AC50 [27]: 35500 nM (inconclusive)

Cn1c(=O)n(-c2ccccc2)c(=O)n([C@@H](Cc2ccccc2)C(N)=O)c1=O
IC50 [28]: > 100000 nM (inactive)
IC50 [29]: > 100000 nM (not active)
IC50 [30]: > 100000 nM (inactive)
IC50 [31]: > 100000 nM (not active)
